Here are results for one compound from patent publication US20160271145A1, “METHOD FOR ENLARGING THE PARTICLE SIZE OF CRYSTALLINE MICROPARTICLES OF ACTIVE SUBSTANCE” (Jesalis Pharma GmbH, priority 2012, published 2016).

Data set [1] in a line: solubility of the active substance in the solvent-antisolvent (acetone-water) mixture of the first suspension. The settings on record: acetone content reduced to 42% by addition of water. Format: physicochemical. An excerpt: Solubilities of the active substance in the solvent-antisolvent mixture of the first suspension of 0.001-0.5 wt. % are suitable for carrying out the method according to the invention. Solubilites of 0.01-0.2 wt. %, in particular 0.02-0.2 wt. % are preferred. By solubility is meant, within the framework of the invention, the usual solubility known to a person skilled in the art, namely the solubility of a substance in thermodynamic equilibrium at room temperature in the solvent-antisolvent mixture. The solubilities are not relative to volume, i.e., they specify the solubility of the active substance in the total volume of the liquid phase of the suspension. It is clear from the stated solubilities that microparticles of active substance are present throughout the method.

Data set [2] in a line: particle size (d50) and span by laser diffraction, Mastersizer E. Format: physicochemical. The settings on record: for d50 value of the particle size distribution (first d50): acetone:water 1:1. An excerpt:
The particle size distribution and the diameters of the particles within the framework of the invention are relative to volume. dx means that x percent by volume (vol. %) of the particles have a diameter which is smaller than the stated value. With a d50 value of 1 μm therefore 50 vol. % of the particles have a diameter smaller than 1 μm (micrometre). If d10 or […] is 1 μm, 10 or 90 vol. %, respectively, of the particles have a diameter smaller than 1 μm. The d50 value is also called average particle size or average particle diameter.
Within the framework of the invention, the average particle size (d50 values) and the particle size distribution were measured by means of laser diffraction, which provides a distribution of the particle sizes. A Mastersizer E (Malvern Instruments) was used. 5 mg solid is dispersed for 20 min in 5 ml 0.1% aqueous sodium dodecyl sulphate solution using ultrasound (2 mm sonotrode, sonicator UPS 200, Dr. Hielscher GmbH, 30% amplitude) and placed in the measurement cell of the Mastersizer E, an optical concentration of 18% is set and measurement is carried out (Fraunhofer evaluation). The span was calculated from the d10, d50 and d90 values ((d90 −d10);d50 ).

Data set [3] can be described thus: habit of the particles evaluated on a microscope image (ratio of largest to smallest size). Format: physicochemical. As for the experimental part:
The predominantly spherical shape manifests itself in that in this preferred embodiment the ratio of the largest to the smallest size of the individual particles is on average ≦2. This ratio is determined by measurement on a microscope image of the particles, by determining the ratio of the largest to the smallest size of each individual particle for at least 50 randomly selected particles and then ascertaining the average over the at least 50 particles. Preferably, the ratio of the largest to the smallest size of the individual particles is on average ≦1.6.
Immediately after the end of the stirring time, the batch is filtered using a nutsch filter with a negative pressure of 100 mbar on the filtrate side and washed with 1.0 l water. The moist filter cake has a mass of approx. 1100 g and is transferred into a 3-l container, topped up to 2160 g with water and redispersed with the Ultra Turrax T50 (|KA) at 12,000 1/min for 10 min. After this, the third d50 value is determined to be 1.28 μm from this second suspension. The span value of the particles is 1.28. The habit is evaluated microscopically as stated above (light microscope image). Habit of the particles: spherical; ratio of the largest to the smallest size of the individual particles on average=1.48. The second suspension is then spray-dried and the particles of fluticasone propionate are obtained.

Data set [4] can be described thus: granulometric analysis and span by laser diffraction (Sympatec, RODOS), reference test according to DE 102008037025 A1. It is filed as physicochemical. To be noted: Comparison example, spray-dried, dispersing pressure 5 bar. The method, then: A 100-ml stirred vessel with blade stirrer is charged with 160 g of Y-stabilized zirconium oxide spheres with a diameter of 0.5 mm plus 30 ml of water. A solution of 0.6 g fluticasone propionate in 10 ml acetone is added to these, with stirring. After stirring for 5 min, a solution of 1.8 g fluticasone in 30 ml acetone and in the same ratio 90 ml water are added dropwise within 10 min, with stirring at 1300 rev/min. Simultaneously, product suspension is drawn off, with approximately constant filling level. Addition and product withdrawal can also take place quasicontinuously in smaller portions without any adverse effect on the result, if the above time frame is maintained. After addition, to complete the yield rinsing is carried out with approx. 60 ml water. Alternatively, the suspension in the crystallizer can be left as starting suspension for the subsequent batch. Altogether, 180 g of suspension with a solids content of 13 mg per ml is obtained. The suspension is then spray-dried Granulometric analysis and span determination were effected by means of laser diffraction (Sympatec Helps, RODOS dispersing system, dispersing pressure 5 bar).

For data set [5] the following is noted: microparticles by the method of DE 102008037025 A1, as stated in the background; cited from earlier work.
The mark [6] stands for this setting: Example 2, mixture of the second suspensions of the preceding and subsequent batch.
The mark [7] stands for this setting: Example 1, light microscope image.

For `CCC(=O)O[C@]1(C(=O)SCF)[C@H](C)C[C@H]2[C@@H]3C[C@H](F)C4=CC(=O)C=C[C@]4(C)[C@@]3(F)[C@@H](O)C[C@@]21C` [fluticasone propionate], the “solubility of fluticasone propionate” value in data set [1] was determined as 0.032 wt. %. Also, the “second d50” value in data set [2] (Example 1, after 4.5 h stirring, 42% acetone) came to 1.12 μm. For the same compound, the “span value of the particles” value in data set [2] (Example 1, second suspension) was determined as 1.28. The “third d50 value” came out at 1.28 μm in data set [2] (Example 1, second suspension after further 17 h stirring, filtration and redispersing in water); 1.24 μm in data set [2] (Example 2, preceding batch, second suspension after further 13 h stirring); 1.30 μm in data set [2] (Example 2, subsequent batch, second suspension, stirring time increased to 18 h). Moreover, the “d50 value of the particle size distribution (first d50)” value in data set [2] (Example 1, starting suspension) is on record as 0.98 μm; in data set [2] (Example 2, preceding batch, starting suspension), 0.99 μm; in data set [2] (Example 2, subsequent batch, starting suspension) it was 0.97 μm. For the same compound, the d50 value in data set [2] (setting [6]) stood at 1.28 μm. In addition, the “span value of the distribution” value was 1.28 in data set [2] (setting [6]); 1.29 in data set [2] (Example 2, preceding batch, second suspension); 1.24 in data set [2] (Example 2, subsequent batch, second suspension). For the same compound, in data set [2] (Example 2, preceding batch, after 4.0 h stirring, 42% acetone), the “second d50 value” is 1.12 μm. Besides, in data set [2] (Example 2, subsequent batch, after 3.5 h stirring, 42% acetone), the “intermediate d50 value” is listed as 1.09 μm. Also, the “habit of the particles” value is “spherical” in data set [3] (setting [7]) and “spherical” in data set [3] (Example 2, subsequent batch). The “ratio of the largest to the smallest size of the individual particles on average” value was found to be 1.48 in data set [3] (setting [7]) and 1.45 in data set [3] (Example 2, subsequent batch). In addition, in data set [4], the d50 came out at 1.47 μm. This compound also yielded a span in data set [4] of 1.78. Also, the d50 values in data set [5] was 1-2 μm. In addition, the span values in data set [5] is recorded as at least 1.7.
